From ChEMBL document CHEMBL3813697, “Design, synthesis, and anticancer activity of C8-substituted-4'-thionucleosides as potential HSP90 inhibitors” (Bioorg Med Chem, 2016)
Blank lines part the entries; values can stand above or below the molecule they belong to. Activity calls are given as the source filed them. The rule behind the calls is not given here.

What was measured:
[1] = biological target: Heat shock protein HSP90 (Homo sapiens) (UniProt P07900+P08238); test: Competitive inhibition of recombinant HSP90 (unknown origin) at 100 uM measured after 3 hrs using FITC-labeled geldanamycin by fluorescence polarization assay
MDA-MB-231 = test: Anticancer activity against human MDA-MB-231 cells measured after 72 hrs by SRB assay; format: functional, cell-based; settings: MDA-MB-231, 72 h
[2] = Anticancer activity against human Caki1 cells measured after 72 hrs by SRB assay; format: functional, cell-based; settings: CAKI-1, 72 h
A549 = test: Anticancer activity against human A549 cells measured after 72 hrs by SRB assay; format: functional, cell-based; settings: A549, 72 h
[3] = Anticancer activity against human HCT116 cells measured after 72 hrs by SRB assay; format: functional, cell-based; settings: HCT-116, 72 h
[4] = Anticancer activity against human SNU638 cells measured after 72 hrs by SRB assay; format: functional, cell-based; settings: SNU-638, 72 h

SMILES: CNc1ncnc2c1nc(-c1cccs1)n2[C@@H]1SC[C@@H](O)[C@H]1O
inhibition [1]: inactive

SMILES: Nc1ncnc2c1nc(-c1cccs1)n2[C@@H]1S[C@H](CO)[C@@H](O)[C@H]1O
inhibition [1]: inactive

SMILES: [N-]=[N+]=Nc1nc2c(N)ncnc2n1[C@@H]1S[C@H](CO)[C@@H](O)[C@H]1O
inhibition [1]: inactive

SMILES: CNc1ncnc2c1nc(-c1ccco1)n2[C@@H]1SC[C@@H](O)[C@H]1O
inhibition [1]: inactive

SMILES: Nc1ncnc2c1nc(-c1ccccc1)n2[C@@H]1S[C@H](CO)[C@@H](O)[C@H]1O
inhibition [1]: inactive

SMILES: O[C@@H]1[C@H](O)CS[C@H]1n1c(-c2ccco2)nc2c(Cl)ncnc21
inhibition [1]: inactive

SMILES: COC1=C2C[C@@H](C)C[C@H](OC)[C@H](O)[C@@H](C)/C=C(\C)[C@H](OC(N)=O)[C@@H](OC)/C=C\C=C(/C)C(=O)NC(=CC1=O)C2=O [GELDANAMYCIN]
IC50 (MDA-MB-231): 110 nM | IC50 [2]: 56 nM | IC50 (A549): 109 nM | IC50 [3]: 150 nM | IC50 [4]: 30 nM

SMILES: CNc1nc2c(N)ncnc2n1[C@@H]1S[C@H](CO)[C@@H](O)[C@H]1O
inhibition [1]: inactive

SMILES: Nc1ncnc2c1nc(-c1ccco1)n2[C@@H]1S[C@H](CO)[C@@H](O)[C@H]1O
inhibition [1]: inactive

SMILES: CCCNc1nc2c(N)ncnc2n1[C@@H]1S[C@H](CO)[C@@H](O)[C@H]1O
inhibition [1]: inactive

SMILES: Nc1ncnc2c1nc(N1CCCCC1)n2[C@@H]1S[C@H](CO)[C@@H](O)[C@H]1O
inhibition [1]: inactive

Continued, in another order:

inhibition [1]: inactive
SMILES: CCCNc1nc2c(N)ncnc2n1[C@@H]1SC[C@@H](O)[C@H]1O

inhibition [1]: inactive
SMILES: Nc1ncnc2c1nc(N1CCCCC1)n2[C@@H]1SC[C@@H](O)[C@H]1O

inhibition [1]: inactive
SMILES: CNc1nc2c(N)ncnc2n1[C@@H]1SC[C@@H](O)[C@H]1O

inhibition [1]: inactive
SMILES: Nc1ncnc2c1nc(-c1cccs1)n2[C@@H]1SC[C@@H](O)[C@H]1O

inhibition [1]: inactive
SMILES: [N-]=[N+]=Nc1nc2c(N)ncnc2n1[C@@H]1SC[C@@H](O)[C@H]1O

inhibition [1]: inactive
SMILES: [N-]=[N+]=Nc1nc2c(Cl)ncnc2n1[C@@H]1SC[C@@H](O)[C@H]1O

inhibition [1]: inactive
SMILES: Nc1ncnc2c1nc(-c1ccco1)n2[C@@H]1SC[C@@H](O)[C@H]1O

inhibition [1]: 11%
SMILES: Nc1ncnc2c1nc(I)n2[C@@H]1SC[C@@H](O)[C@H]1O

inhibition [1]: inactive
SMILES: Nc1ncnc2c1nc(NCc1ccccc1)n2[C@@H]1SC[C@@H](O)[C@H]1O

IC50 (MDA-MB-231): > 100000 nM | inhibition [1]: inactive | IC50 (A549): > 100000 nM
SMILES: Nc1ncnc2c1nc(NCc1ccc3c(c1)OCO3)n2[C@@H]1SC[C@@H](O)[C@H]1O
IC50 [2]: > 100000 nM | IC50 [3]: > 100000 nM | IC50 [4]: > 100000 nM

inhibition [1]: inactive
SMILES: O[C@@H]1[C@H](O)CS[C@H]1n1c(-c2cccs2)nc2c(Cl)ncnc21
